{"source": "patent US20200262991A1", "about": "“Method for Tuning Topology of Polymer Particles” (UNIVERSITY OF SOUTH CAROLINA, priority 2019, published 2020)", "system": "3T3-L1 adipocytes", "experiment": "Oil Red O lipid content assay in differentiated 3T3-L1 adipocytes", "assay_type": "cell-based, mouse", "conditions": "60 μM free resveratrol dissolved in ethanol, 48 hours", "protocol": "3T3-L1 fibroblasts (ATCC), were differentiated into adipocytes following ATCC's protocol, with slight modifications. Briefly, 3T3-L1 cells were seeded in 6 well plates at 80,000 cells/well and cultured in DMEM supplemented with 10% SuperCalf Serum and 1% Pen/Strep. 48 hours after confluence was reached, media was exchanged with “differentiation media” consisting of DMEM supplemented with 10% FBS, 10 μg/mL bovine insulin, 0.25 μM dexamethasone, and 0.5 mM IBMX. 48 hours after differentiation media was added, media was exchanged for DMEM supplemented with 10% FBS and 10 μg/mL bovine insulin. After another 48 hours, media was exchanged for DMEM supplemented with 10% FBS. Cells were then cultured until treatment with particles, which occurred 9 days after exposure to the differentiation media. […] Absorbance of extracted Oil Red O was measured at 500 nm using a spectrophotometer. Bioactivity of the resveratrol following the fabrication process was determined. Specifically, the ability of the resveratrol particles to induce lipolysis in differentiated 3T3-L1 adipocytes was determined by measuring lipid content with an Oil Red O assay. […] Lipid content was visualized with Oil Red O, a lipophilic dye, (FIG. 3 at A-F) and lipid content was quantified by extracting the dye (FIG. 3 at G) and measuring the solution's absorbance (FIG. 3 at H).", "data": [{"smiles": "Oc1ccc(/C=C/c2cc(O)cc(O)c2)cc1", "note": "[resveratrol, 3,5,4′-trihydroxy-trans-stilbene]", "values": [{"measurement": "Oil Red O staining (intracellular lipid content)", "result": "decreased Oil Red O staining"}]}]}
